In the CheMixHub drug solubility set:

Assay: xn = mol fraction of the nth substance listed, in the solute-free solvent

Nc1cccc(S(=O)(=O)c2cccc(N)c2)c1 + CN(C)C=O + O
solubility (g/100 g solution)
Conditions	283.15 K	288.15 K	293.15 K	298.15 K	303.15 K	308.15 K	313.15 K	318.15 K	323.15 K	328.15 K
x2 = 0.02666	0.202	0.267	0.355	0.463	0.615	0.787	1.01	1.26	1.53	1.97
x2 = 0.05806	0.784	1.03	1.32	1.65	2.08	2.63	3.23	3.98	4.79	5.92
x2 = 0.09556	2.09	2.63	3.21	3.95	4.75	5.77	6.85	8.08	9.45	11
x2 = 0.1412	4.93	5.86	6.87	8.09	9.39	10.8	12.4	14.1	15.9	17.7
x2 = 0.1978	7.85	9.25	10.8	12.5	14.2	16.2	18.4	20.5	22.9	25.4
x2 = 0.27	11.4	13	15	16.9	19.1	21.5	23.9	26.7	29.3	32.1
x2 = 0.3652	14.4	16.6	18.8	21.2	23.6	26.3	29.1	31.9	34.6	37.4
x2 = 0.4965	17.8	20.1	22.5	25.2	27.8	30.7	33.8	36.6	39.7	42.6
x2 = 0.6893	20.8	23.1	25.7	28.2	31.1	33.9	36.5	39.4	42.3	45.4

Nc1nccnc1Cl + CN(C)C=O + O
solubility (g/100 g solution)
Conditions	278.15 K	283.15 K	288.15 K	293.15 K	298.15 K	303.15 K	308.15 K	313.15 K	318.15 K	323.15 K
x2 = 0.02666	0.123	0.162	0.208	0.257	0.308	0.359	0.41	0.469	0.522	0.579
x2 = 0.05806	0.379	0.491	0.623	0.761	0.903	1.04	1.18	1.34	1.47	1.62
x2 = 0.09556	0.721	0.929	1.17	1.43	1.69	1.95	2.2	2.48	2.72	2.98
x2 = 0.1412	1.01	1.3	1.64	2.01	2.38	2.75	3.11	3.5	3.86	4.23
x2 = 0.1978	1.14	1.5	1.9	2.35	2.8	3.27	3.75	4.24	4.69	5.16
x2 = 0.27	1.26	1.69	2.14	2.67	3.17	3.72	4.29	4.84	5.41	6.03
x2 = 0.3652	1.38	1.82	2.33	2.93	3.56	4.17	4.81	5.48	6.15	6.86
x2 = 0.4965	1.5	2.02	2.55	3.24	3.93	4.64	5.37	6.21	7	7.83
x2 = 0.6893	1.59	2.12	2.72	3.45	4.22	5.01	5.87	6.75	7.69	8.67

CC(CCc1ccccc1)NCC(O)c1ccc(O)c(C(N)=O)c1.Cl (configuration not stated) + CO + CC#N
solubility (g/100 g solution)
Conditions	288.15 K	293.15 K	298.15 K	303.15 K	308.15 K	313.15 K	318.15 K	323.15 K	328.15 K
x2 = 0.2426	0.0461	0.0674	0.0984	0.137	0.19	0.268	0.388	0.533	0.751
x2 = 0.3544	0.126	0.167	0.222	0.282	0.389	0.49	0.639	0.847	1.1
x2 = 0.4606	0.172	0.234	0.323	0.436	0.58	0.766	1.03	1.38	1.81
x2 = 0.5616	0.411	0.533	0.674	0.884	1.1	1.4	1.74	2.17	2.71
x2 = 0.6577	0.787	0.998	1.23	1.54	1.92	2.35	2.89	3.46	4.2
x2 = 0.7493	1.73	2.02	2.44	2.83	3.37	3.94	4.42	5.29	6.03
x2 = 0.8367	2.23	2.77	3.37	4.11	5.04	6.01	7.18	8.54	10.1
x2 = 0.9202	4.34	5.22	6.18	7.32	8.68	10.1	11.7	13.5	15.6
